Source: patent US20240150351A1, “BICYCLIC COMPOUNDS” (Aligos Therapeutics, Inc., priority 2022, published 2024)
Where a name gives a salt, the structure may show the parent alone.

Columns and labels:
HBV = assay: HBV-DNA antiviral assay using HepG2.117 cells (intracellular HBV DNA by qPCR); type: cell-based, genotype D HBV; details: 3 days incubation, HBV DNA inhibition
Protocol: (§1) The following assay procedure describes the HBV antiviral assay, using HepG2.117 cells, which carry a stably integrated genotype D HBV genome under the control of a Tet-off promoter, and intracellular HBV DNA quantification as endpoint. Cell viability is assessed in parallel by measuring the intracellular ATP content using CellTiter-Glo 2.0 (Promega).
On day 0, HepG2.117 cells (which are maintained in routine cell culture with doxycycline present in the medium at a final concentration of 1 μg/mL) are seeded in 96-well plates (white with clear bottom) at a density of 2.0×10^4 cells/well (0.1 mL/well) in medium without doxycycline to induce pgRNA transcription and subsequent formation of HBV particles. The cells are incubated at 37° C. and 5% CO2.
(§2) On day 1, medium is removed from each well, the test articles are diluted in culture medium without doxcycyline and 100 μL was added to cell culture wells (9 concentrations, 4-fold dilution). For each plate, 6 untreated (merely DMSO) wells are included. The final concentration of DMSO in the culture medium is 2%. Each plate is prepared in duplicate (one for HBV DNA extraction, one for CellTiter-Glo 2.0 measurement). The cells are incubated at 37° C. and 5% CO2 for 3 days.
(§3) On day 4, cell viability is assessed using CellTiter-Glo 2.0 and cell lysates are prepared for HBV DNA extraction and subsequent quantification by qPCR.
HBV DNA Quantification by qPCR
Medium is removed from each well and 100 μL of 0.33% NP-40 in H2O was added to each well. Plates are sealed, incubated at 4° C. for 5 mins, vortexed extensively and centrifuged briefly. Next, 35 μL of lysate is added to 65 μL QuickExtract DNA Extraction Solution (Epicentre) in a PCR plate for each well. PCR plate is incubated at 65° C. for 6 mins, 98° C. for 2 mins and finally cooled to 4° C. HBV DNA is then quantified by qPCR with HBV-specific primers and probes as specified in Table 2 using the Bio-Rad SSOAdvanced Universal Probes Supermix on a CFX96 machine (Bio-Rad). The PCR cycle program consisted of 95° C. for 3 mins, followed by 40 cycles at 95° C. for 10 sec and 60° C. for 30 sec.
A DNA standard is prepared by dilution of an IDT gBlock corresponding to the amplicon with concentrations ranging from 10^2 to 10^8 copies/input (i.e., per 4 μL) and used to generate a standard curve by plotting Cq values vs. HBV DNA standard concentration. The quantity of HBV DNA in each sample is determined by interpolating from the standard curve.
(§4) Cell viability is calculated as follows: % Cell viability=(luminescence value of test sample)/(average luminescence value of 2% DMSO control)×100%. HBV DNA inhibition was calculated as follows: 100−(HBV DNA copy number of test sample)/(average HBV DNA copy number of 2% DMSO control)×100%. No normalization to entecavir is required due to the excellent dynamic window of this assay. The CC50, EC50 and EC90 values were determined by dose-response curves fitted using non-linear regression.

HepG2.117 cells = assay: Cell viability by CellTiter-Glo 2.0 (intracellular ATP content); type: cell-based; details: 3 days incubation
Protocol: as §1, §2, §3
(§5) Using the other plates, the cell viability is quantified by CellTiter-Glo 2.0 according to the manufacturer's manual. In brief, 100 μL of reagent solution is added to the culture plates and shaken for 2′. The plates are incubated at rt for 10 min and luminescence signal is subsequently measured on a VarioSkan Lux (ThermoFisher) plate reader.
as §4

[1] = as above; type: cell-based; details: human, HepG2.117 cells, 3 days incubation
Protocol: as §1, §2, §3, §5, §4

Row | Structure (SMILES) | EC50 (HBV) [µM] | CC50 (HepG2.117 cells) [µM] | EC50 (HBV; Hepatitis B virus, 72 h) [µM] | CC50 at 3 days [1] [µM]
1 | C=C[C@H](C)Nc1nc2c(c(=O)n1-c1ccc(C(=O)N(C)C(=O)O[C@@H](OC(=O)[C@@H](N)C(C)C)C(C)C)cc1)C[C@@H](C)N(C(=O)c1ccc(Br)c(C(F)(F)F)c1)C2 (relative stereo) [Compound 11, (*R)-1-(((4-((R)-7-(4-bromo-3-(trifluoromethyl)benzoyl)-2-(((S)-but-3-en-2-yl)amino)-6-methyl-4-oxo-5,6,7,8-tetrahydropyrido[3,4-d]pyrimidin-3(4H)-yl)benzoyl)(methyl)carbamoyl)oxy)-2-methylpropyl L-valinate hydrochloride] | ≤ 0.05 | > 50 | – | –
2 | C=C[C@H](C)Nc1nc2c(c(=O)n1-c1ccc(C(=O)N(C)C(=O)OCOC(=O)C[C@H](O)C(=O)O)cc1)C[C@@H](C)N(C(=O)c1ccc(Br)c(C(F)(F)F)c1)C2 [Compound 9, (S)-4-((((4-((R)-7-(4-bromo-3-(trifluoromethyl)benzoyl)-2-(((S)-but-3-en-2-yl)amino)-6-methyl-4-oxo-5,6,7,8-tetrahydropyrido[3,4-d]pyrimidin-3(4H)-yl)benzoyl)(methyl)carbamoyl)oxy)methoxy)-2-hydroxy-4-oxobutanoic acid] | – | – | ≤ 0.05 | > 50
3 | C=C[C@H](C)Nc1nc2c(c(=O)n1-c1ccc(C(=O)NC)cc1)C[C@@H](C)N(C(=O)c1ccc(Br)c(C(F)(F)F)c1)C2 [Compound 1, 4-((R)-7-(4-bromo-3-(trifluoromethyl)benzoyl)-2-(((S)-but-3-en-2-yl)amino)-6-methyl-4-oxo-5,6,7,8-tetrahydropyrido[3,4-d]pyrimidin-3(4H)-yl)-N-methylbenzamide] | – | – | ≤ 0.05 | 46.8
4 | C=C[C@H](C)Nc1nc2c(c(=O)n1-c1ccc(C(=O)N(C)C(=O)O[C@H](C)OC(=O)[C@@H](N)C(C)C)cc1)C[C@@H](C)N(C(=O)c1ccc(Br)c(C(F)(F)F)c1)C2 (relative stereo) [Compound 7, (*R)-1-(((4-((R)-7-(4-bromo-3-(trifluoromethyl)benzoyl)-2-(((S)-but-3-en-2-yl)amino)-6-methyl-4-oxo-5,6,7,8-tetrahydropyrido[3,4-d]pyrimidin-3(4H)-yl)benzoyl)(methyl)carbamoyl)oxy)ethyl L-valinate hydrochloride] | ≤ 0.05 | > 50 | – | –
5 | C=C[C@H](C)Nc1nc2c(c(=O)n1-c1ccc(C(=O)N(C)C(=O)OCOP(=O)(O)O)cc1)C[C@@H](C)N(C(=O)c1ccc(Br)c(C(F)(F)F)c1)C2 [Compound 2, (phosphonooxy)methyl (4-((R)-7-(4-bromo-3-(trifluoromethyl)benzoyl)-2-(((S)-but-3-en-2-yl)amino)-6-methyl-4-oxo-5,6,7,8-tetrahydropyrido[3,4-d]pyrimidin-3(4H)-yl)benzoyl)(methyl)carbamate] | – | – | ≤ 0.05 | > 50
6 | C=C[C@H](C)Nc1nc2c(c(=O)n1-c1ccc(C(=O)N(C)C(=O)OCOC(=O)/C=C/C(=O)O)cc1)C[C@@H](C)N(C(=O)c1ccc(Br)c(C(F)(F)F)c1)C2 [Compound 3, (E)-4-((((4-((R)-7-(4-bromo-3-(trifluoromethyl)benzoyl)-2-(((S)-but-3-en-2-yl)amino)-6-methyl-4-oxo-5,6,7,8-tetrahydropyrido[3,4-d]pyrimidin-3(41H)-yl)benzoyl)(methyl)carbamoyl)oxy)methoxy)-4-oxobut-2-enoic acid] | – | – | ≤ 0.05 | > 50
7 | C=C[C@H](C)Nc1nc2c(c(=O)n1-c1ccc(C(=O)N(C)C(=O)OCOC(=O)[C@@H](N)C(C)C)cc1)C[C@@H](C)N(C(=O)c1ccc(Br)c(C(F)(F)F)c1)C2 [Compound 4, (((4-((R)-7-(4-bromo-3-(trifluoromethyl)benzoyl)-2-(((S)-but-3-en-2-yl)amino)-6-methyl-4-oxo-5,6,7,8-tetrahydropyrido[3,4-d]pyrimidin-3(4H)-yl)benzoyl)(methyl)carbamoyl)oxy)methyl L-valinate hydrochloride] | – | – | ≤ 0.05 | > 50
8 | C=C[C@H](C)Nc1nc2c(c(=O)n1-c1ccc(C(=O)N(C)CO)cc1)C[C@@H](C)N(C(=O)c1ccc(Br)c(C(F)(F)F)c1)C2 [Compound 8, 4-((R)-7-(4-bromo-3-(trifluoromethyl)benzoyl)-2-(((S)-but-3-en-2-yl)amino)-6-methyl-4-oxo-5,6,7,8-tetrahydropyrido[3,4-d]pyrimidin-3(4H)-yl)-N-(hydroxymethyl)-N-methylbenzamide] | – | – | ≤ 0.05 | > 50
9 | C=C[C@H](C)Nc1nc2c(c(=O)n1-c1ccc(C(=O)N(C)C(=O)O[C@@H](C)OC(=O)[C@@H](N)C(C)C)cc1)C[C@@H](C)N(C(=O)c1ccc(Br)c(C(F)(F)F)c1)C2 (relative stereo) [Compound 6, (*S)-1-(((4-((R)-7-(4-bromo-3-(trifluoromethyl)benzoyl)-2-(((S)-but-3-en-2-yl)amino)-6-methyl-4-oxo-5,6,7,8-tetrahydropyrido[3,4-d]pyrimidin-3(4H)-yl)benzoyl)(methyl)carbamoyl)oxy)ethyl L-valinate hydrochloride] | ≤ 0.05 | > 50 | – | –
10 | C=C[C@H](C)Nc1nc2c(c(=O)n1-c1ccc(C(=O)N(C)C(=O)OCOC(=O)[C@H](N)C(C)C)cc1)C[C@@H](C)N(C(=O)c1ccc(Br)c(C(F)(F)F)c1)C2 [Compound 5, (((4-((R)-7-(4-bromo-3-(trifluoromethyl)benzoyl)-2-(((S)-but-3-en-2-yl)amino)-6-methyl-4-oxo-5,6,7,8-tetrahydropyrido[3,4-d]pyrimidin-3(4H)-yl)benzoyl)(methyl)carbamoyl)oxy)methyl D-valinate hydrochloride] | – | – | ≤ 0.05 | 48.8
11 | C=C[C@H](C)Nc1nc2c(c(=O)n1-c1ccc(C(=O)N(C)C(=O)O[C@H](OC(=O)[C@@H](N)C(C)C)C(C)C)cc1)C[C@@H](C)N(C(=O)c1ccc(Br)c(C(F)(F)F)c1)C2 (relative stereo) [Compound 10, (*S)-1-(((4-((R)-7-(4-bromo-3-(trifluoromethyl)benzoyl)-2-(((S)-but-3-en-2-yl)amino)-6-methyl-4-oxo-5,6,7,8-tetrahydropyrido[3,4-d]pyrimidin-3(4H)-yl)benzoyl)(methyl)carbamoyl)oxy)-2-methylpropyl L-valinate hydrochloride] | ≤ 0.05 | > 50 | – | –
